Assays:
[1] = target: T1, CDK2 (Homo sapiens, UniProt P24941); experiment: CDK protein degradation activity (Western blotting), CDK2; format: cell-based; conditions: MDA-MB-231 cells, 16 hours, Western blot
T1 construct: endogenous in cells; host or cells: MDA-MB-231
Procedure, shortened: (§1)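 MDA-MB-231; cmpd 100 nM / 1 μM / 10 μM final vs DMSO, 16 h. Triton X-100 lysates (pH 7.5, phosphatase/protease inhibitors) → SDS-PAGE → Western blot, anti-CDK2, anti-CDK9, tubulin loading control; densitometry.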

[2] = target: T2, CDK9 (Homo sapiens, UniProt P50750); experiment: CDK protein degradation activity (Western blotting), CDK9; format: cell-based; conditions: MDA-MB-231 cells, 16 hours, Western blot
T2 construct: endogenous in cells; host or cells: MDA-MB-231
Procedure, shortened: as §1

T2 sequence (P50750 whole entry): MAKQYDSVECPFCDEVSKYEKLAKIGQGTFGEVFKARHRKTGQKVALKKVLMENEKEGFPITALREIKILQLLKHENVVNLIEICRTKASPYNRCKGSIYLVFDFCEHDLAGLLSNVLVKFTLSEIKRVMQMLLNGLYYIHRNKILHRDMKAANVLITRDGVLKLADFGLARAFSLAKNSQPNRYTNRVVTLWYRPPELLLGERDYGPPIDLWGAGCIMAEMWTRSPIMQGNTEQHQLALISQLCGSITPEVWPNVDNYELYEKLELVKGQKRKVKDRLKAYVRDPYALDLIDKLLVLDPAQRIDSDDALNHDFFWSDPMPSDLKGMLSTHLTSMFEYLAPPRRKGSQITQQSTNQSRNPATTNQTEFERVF

SMILES | Enzyme degradation CDK2 (% remaining) @ 0.1 μM [1] | Enzyme degradation CDK2 (% remaining) @ 1 μM [1] | Enzyme degradation CDK2 (% remaining) @ 10 μM [1] | Enzyme degradation CDK9 (% remaining) @ 0.1 μM [2] | Enzyme degradation CDK9 (% remaining) @ 1 μM [2] | Enzyme degradation CDK9 (% remaining) @ 10 μM [2]
Cc1cccc(C(=O)NC2CC(n3cnc4c(Nc5ccc(N6CCN(CC7CCN(C(=O)C8CCN(c9ccc%10c(c9)C(=O)N([C@H]9CCC(=O)NC9=O)C%10=O)CC8)CC7)CC6)cc5)ncnc43)C2)n1 (stereo partly drawn) [Compound 379, N-((1s,3s)-3-(6-((4-(4-((1-(1-(2-(2,6-dioxopiperidin-3-yl)-1,3-dioxoisoindolin-5-yl)piperidin-4-carbonyl)piperidin-4-yl)methyl)piperazin-1-yl)phenyl)amino)-9H-purin-9-yl)cyclobutyl)-6-methylpicolinamide] | 40/40/40% | 40/40/40% | 40/40/40% | 0/0/0% | 0/0/0% | 0/0/0%
O=C1CC[C@H](N2C(=O)c3cccc(N4CCC(CN5CCN(c6ccc(Nc7ncnc8c7ncn8C7CC(NC(=O)Cc8ccccc8)C7)cc6)CC5)CC4)c3C2=O)C(=O)N1 (stereo partly drawn) [Compound 178, N-((1s,3s)-3-(6-((4-(4-((1-(2-(2,6-dioxopiperidin-3-yl)-1,3-dioxoisoindolin-4-yl)piperidin-4-yl)methyl)piperazin-1-yl)phenyl)amino)-9H-purin-9-yl)cyclobutyl)-2-phenylacetamide] | 30% | 20% | 20% | 10% | 0% | 0%
O=C1CC[C@H](N2C(=O)c3ccc(N4CCC(C(=O)N5CCC(CN6CCN(c7ccc(Nc8ncnc9c8ncn9C8CC(NC(=O)c9cccc(F)n9)C8)cc7)CC6)CC5)CC4)cc3C2=O)C(=O)N1 (stereo partly drawn) [Compound 467, N-((1s,3s)-3-(6-((4-(4-((1-(1-(2-(2,6-dioxopiperidin-3-yl)-1,3-dioxoisoindolin-5-yl)piperidin-4-carbonyl)piperidin-4-yl)methyl)piperazin-1-yl)phenyl)amino)-9H-purin-9-yl)cyclobutyl)-6-fluoropicolinamide] | 40% | 30% | 30% | 0/0/0% | 0/0/0% | 0/0/0%
Cc1cccc(C(=O)NC2CC(n3cnc4c(Nc5ccc(N6CCN(CC7CCN(c8ccc9nnn([C@H]%10CCC(=O)NC%10=O)c(=O)c9c8)CC7)CC6)cc5C)ncnc43)C2)n1 (stereo partly drawn) [Compound 478, N-((1s,3s)-3-(6-((4-(4-((1-(3-(2,6-dioxopiperidin-3-yl)-4-oxo-3,4-dihydrobenzo[d][1,2,3]triazin-6-yl)piperidin-4-yl)methyl)piperazin-1-yl)-2-methylphenyl)amino)-9H-purin-9-yl)cyclobutyl)-6-methylpicolinamide] | 10% | 20% | 20% | 20/20/20% | 20/20/20% | 20/20/20%
O=C1CCC(N2C(=O)c3ccc(N4CC(C(=O)N5CCN(C6CN(c7ccc(Nc8ncnc9c8ncn9[C@H]8C[C@@H](NC(=O)Cc9ccccc9)C8)cc7)C6)CC5)C4)cc3C2=O)C(=O)N1 (stereo partly drawn) [Compound 374, N-((1s,3s)-3-(6-((4-(3-(4-(1-(2-(2,6-dioxopiperidin-3-yl)-1,3-dioxoisoindolin-5-yl)azetidin-3-carbonyl)piperazin-1-yl)azetidin-1-yl)phenyl)amino)-9H-purin-9-yl)cyclobutyl)-2-phenylacetamide] | 30% | 30% | 50% | 30% | 20% | 20%
O=C1CCC(N2C(=O)c3ccc(N4CCC(CN5CCN(c6ccc(Nc7ncnc8c7ncn8[C@H]7C[C@@H](NC(=O)c8cccc(Cl)n8)C7)cc6)CC5)CC4)cc3C2=O)C(=O)N1 (stereo partly drawn) [Compound 391, 6-chloro-N-((1s,3s)-3-(6-((4-(4-((1-(2-(2,6-dioxopiperidin-3-yl)-1,3-dioxoisoindolin-5-yl)piperidin-4-yl)methyl)piperazin-1-yl)phenyl)amino)-9H-purin-9-yl)cyclobutyl)picolinamide] | 10/10/10% | 10/10/10% | 10/10/10% | 0/0/0% | 0/0/0% | 0/0/0%
O=C1CC[C@H](n2nnc3ccc(N4CCN(CC5CCN(c6ccc(Nc7ncnc8c7ncn8C7CC(NC(=O)c8c(Cl)cccc8Cl)C7)cc6)CC5)CC4)cc3c2=O)C(=O)N1 (stereo partly drawn) [Compound 370, 2,6-dichloro-N-((1s,3s)-3-(6-((4-(4-((4-(3-(2,6-dioxopiperidin-3-yl)-4-oxo-3,4-dihydrobenzo[d][1,2,3]triazin-6-yl)piperazin-1-yl)methyl)piperidin-1-yl)phenyl)amino)-9H-purin-9-yl)cyclobutyl)benzamide] | 0/0/0% | 0/0/0% | 0/0/0% | 0/0/0% | 0/0/0% | 0/0/0%
O=C1CC[C@H](N2C(=O)c3cc(F)c(N4CCC(C(=O)N5CCC(CN6CCN(c7ccc(Nc8ncnc9c8ncn9C8CC(NC(=O)c9cccc(Cl)n9)C8)cc7)CC6)CC5)CC4)cc3C2=O)C(=O)N1 (stereo partly drawn) [Compound 453, 6-chloro-N-((1s,3s)-3-(6-((4-(4-((1-(1-(2-(2,6-dioxopiperidin-3-yl)-6-fluoro-1,3-dioxoisoindolin-5-yl)piperidin-4-carbonyl)piperidin-4-yl)methyl)piperazin-1-yl)phenyl)amino)-9H-purin-9-yl)cyclobutyl)picolinamide] | 20% | 20% | 30% | 0/0/0% | 0/0/0% | 0/0/0%
O=C1CC[C@H](N2C(=O)c3cccc(NCC(=O)N4CCN(CC5CCN(c6ccc(Nc7ncnc8c7ncn8[C@H]7C[C@@H](NC(=O)c8c(Cl)cccc8Cl)C7)cc6)CC5)CC4)c3C2=O)C(=O)N1 [Compound 311, 2,6-dichloro-N-((1s,3s)-3-(6-((4-(4-((4-((2-(2,6-dioxopiperidin-3-yl)-1,3-dioxoisoindolin-4-yl)glycyl)piperazin-1-yl)methyl)piperidin-1-yl)phenyl)amino)-9H-purin-9-yl)cyclobutyl)benzamide] | 10% | 20% | 20% | 10% | 0% | 0%
O=C1CC[C@H](N2C(=O)C=C(N3CCC(C(=O)N4CCC5(CC4)CC(N4CCN(c6ccc(Nc7ncnc8c7ncn8C7CC(NC(=O)Cc8ccccc8)C7)cc6)CC4)C5)CC3)C2=O)C(=O)N1 (stereo partly drawn) [Compound 193, N-((1s,3s)-3-(6-((4-(4-(7-(1-(1-(2,6-dioxopiperidin-3-yl)-2,5-dioxo-2,5-dihydro-1H-pyrrol-3-yl)piperidin-4-carbonyl)-7-azaspiro[3.5]nonan-2-yl)piperazin-1-yl)phenyl)amino)-9H-purin-9-yl)cyclobutyl)-2-phenylacetamide] | 20% | 20% | 10% | 0% | 10% | 10%
O=C1CC[C@@H](c2ccc(OCC(=O)N3CCC(CN4CCN(c5ccc(Nc6ncnc7c6ncn7[C@H]6C[C@@H](NC(=O)c7cccc(Cl)n7)C6)cc5)CC4)CC3)cc2)C(=O)N1 [Compound 440, 6-chloro-N-((1s,3s)-3-(6-((4-(4-((1-(2-(4-(2,6-dioxopiperidin-3-yl)phenoxy)acetyl)piperidin-4-yl)methyl)piperazin-1-yl)phenyl)amino)-9H-purin-9-yl)cyclobutyl)picolinamide] | 20/20/20% | 20/20/20% | 20/20/20% | 10/10/10% | 10/10/10% | 10/10/10%
Cc1cccc(C(=O)NC2CC(n3cnc4c(NC5CCN(C(=O)CC6CCN(c7ccc8c(c7)C(=O)N([C@H]7CCC(=O)NC7=O)C8=O)CC6)CC5)ncnc43)C2)n1 (stereo partly drawn) [Compound 53, N-((1s,3s)-3-(6-((1-(2-(1-(2-(2,6-dioxopiperidin-3-yl)-1,3-dioxoisoindolin-5-yl)piperidin-4-yl)acetyl)piperidin-4-yl)amino)-9H-purin-9-yl)cyclobutyl)-6-methylpicolinamide] | 90% | 80% | 70% | 90% | 90% | 10%

From US20260125382A1, “COMPOUNDS FOR INHIBITING OR DEGRADING CDK2 AND/OR CDK9 AND MEDICINAL USE THEREOF” (KOREA RESEARCH INSTITUTE OF CHEMICAL TECHNOLOGY, priority 2022, published 2026)
